Measurements: ChEMBL document CHEMBL3217481, “2-Amino-5-arylbenzoxazole derivatives as potent inhibitors of fatty acid amide hydrolase (FAAH)” (Medchemcomm, 2012)

Key:
[1] = target: T1, Fatty-acid amide hydrolase 1 (Homo sapiens, UniProt O00519); assay: Inhibition of human FAAH expressed in HEK293 cells using arachadonyl 7-amino 4-methyl coumarin amide as substrate by fluorimetric assay; assay type: cell-based
T1 sequence (O00519 whole entry): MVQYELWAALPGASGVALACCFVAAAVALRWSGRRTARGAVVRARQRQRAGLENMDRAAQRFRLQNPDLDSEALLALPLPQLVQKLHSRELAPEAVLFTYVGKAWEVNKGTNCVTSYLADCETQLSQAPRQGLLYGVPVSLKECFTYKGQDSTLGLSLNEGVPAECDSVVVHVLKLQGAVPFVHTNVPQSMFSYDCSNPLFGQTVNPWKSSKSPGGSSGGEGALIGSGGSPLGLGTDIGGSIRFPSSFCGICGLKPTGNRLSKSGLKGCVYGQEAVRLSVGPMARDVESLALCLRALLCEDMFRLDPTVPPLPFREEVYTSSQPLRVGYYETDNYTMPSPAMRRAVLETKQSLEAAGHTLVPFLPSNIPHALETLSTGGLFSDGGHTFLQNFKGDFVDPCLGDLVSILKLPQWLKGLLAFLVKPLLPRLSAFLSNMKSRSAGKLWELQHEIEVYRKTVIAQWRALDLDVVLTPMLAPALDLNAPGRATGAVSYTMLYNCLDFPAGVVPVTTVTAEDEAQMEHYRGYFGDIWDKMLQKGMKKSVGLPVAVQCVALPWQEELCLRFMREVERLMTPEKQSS

[2] = target: T2, Fatty-acid amide hydrolase 1 (Rattus norvegicus, UniProt P97612); assay: Inhibition of rat FAAH expressed in HEK293 cells using arachadonyl 7-amino 4-methyl coumarin amide as substrate by fluorimetric assay; assay type: cell-based
T2 sequence (P97612 whole entry): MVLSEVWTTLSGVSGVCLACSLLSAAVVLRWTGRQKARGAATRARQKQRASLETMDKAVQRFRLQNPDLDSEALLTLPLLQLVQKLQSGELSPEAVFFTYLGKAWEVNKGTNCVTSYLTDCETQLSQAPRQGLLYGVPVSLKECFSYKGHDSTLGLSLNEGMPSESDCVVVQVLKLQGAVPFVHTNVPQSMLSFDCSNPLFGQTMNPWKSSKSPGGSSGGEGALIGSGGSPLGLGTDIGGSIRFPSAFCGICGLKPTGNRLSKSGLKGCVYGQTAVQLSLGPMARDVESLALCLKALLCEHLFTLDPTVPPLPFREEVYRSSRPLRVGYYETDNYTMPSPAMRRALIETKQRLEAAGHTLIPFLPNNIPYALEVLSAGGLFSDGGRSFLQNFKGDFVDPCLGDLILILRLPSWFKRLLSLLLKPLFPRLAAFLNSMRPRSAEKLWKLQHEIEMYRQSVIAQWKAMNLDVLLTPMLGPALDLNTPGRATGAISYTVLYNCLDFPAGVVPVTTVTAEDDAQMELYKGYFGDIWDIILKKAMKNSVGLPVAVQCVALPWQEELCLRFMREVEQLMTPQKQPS

[3] = Inhibition of rabbit brain FAAH; parameters: species or system Oryctolagus cuniculus
[4] = Inhibition of guinea pig brain FAAH; parameters: species or system Cavia porcellus
[5] = target: T1, Fatty-acid amide hydrolase 1; assay: Reversible inhibition of full length human FAAH assessed as inhibition of 3[H]-anandamide hydrolysis preincubated for 3 hrs measured after 15 mins post substrate addition by cell-based assay

Row | SMILES | IC50 [1] [nM] | also measured
1 | C[C@@H]1CN(c2nc3cc(-c4ccc5c(ccn5C)c4)ccc3o2)C[C@H](C)O1 | 168 | –
2 | CN(c1ccccc1)c1nc2cc(-c3ccc4c(ccn4C)c3)ccc2o1 | 68 | –
3 | Cn1ncc2cc(-c3ccc4oc(NC5CCCCC5)nc4c3)ccc21 | 61 | –
4 | CNc1nc2cc(-c3ccc4c(ccn4C)c3)ccc2o1 | > 1000 | –
5 | Cn1ccc2cc(-c3ccc4oc(N5CCN(c6ccccc6)CC5)nc4c3)ccc21 | 63 | –
6 | Cn1ncc2c(-c3ccc4oc(N5Cc6ccccc6C5)nc4c3)cccc21 | 3.2 | –
7 | c1cnc2ccc(-c3ccc4oc(NC5CCCCC5)nc4c3)cc2c1 | > 1000 | –
8 | O=C(Nc1ccccc1)N1CCC(Cc2cnc3ccccc3c2)CC1 | – | IC50 [2]: 17 nM; IC50 [3]: 0.8 nM; IC50 [4]: 66 nM
9 | Cn1ccc2cc(-c3ccc4oc(N5Cc6ccncc6C5)nc4c3)ccc21 | 121 | –
10 | Cn1ccc2cc(-c3ccc4oc(Nc5ccncc5)nc4c3)ccc21 | > 1000 | –
11 | CCn1ccc2cc(-c3ccc4oc(NC5CCCCC5)nc4c3)ccc21 | 207 | –
12 | COc1cccc(-c2ccc3oc(N4Cc5ccccc5C4)nc3c2)c1 | 28 | –
13 | NC(=O)Cn1ccc2cc(-c3ccc4oc(NC5CCCCC5)nc4c3)ccc21 | 214 | –
14 | Cn1ccc2cc(-c3ccc4oc(N5CCNCC5)nc4c3)ccc21 | > 1000 | –
15 | Cn1ccc2cc(-c3ccc4oc(Nc5ccc(F)cc5)nc4c3)ccc21 | 99 | –
16 | N#Cc1cc(-c2ccc3oc(NC4CCCCC4)nc3c2)ccc1O | 54 | –
17 | COc1cc(-c2ccc3oc(N4Cc5ccccc5C4)nc3c2)ccn1 | 10 | –
18 | c1cc2cc(-c3ccc4oc(NC5CCCCC5)nc4c3)cnc2[nH]1 | > 1000 | –
19 | Cn1ccc2cc(-c3ccc4oc(N5CCCC5)nc4c3)ccc21 | 674 | –
20 | CCCCCCCC/C=C\CCCCCCCC(=O)C(F)(F)F | – | IC50 [5]: 187 nM
21 | NC(=O)c1cccc(-c2ccc3oc(NC4CCCCC4)nc3c2)c1 | > 1000 | –
22 | Cn1ccc2cc(-c3ccc4oc(Nc5ccccn5)nc4c3)ccc21 | 186 | –

Row | SMILES | IC50 [1] [nM] | also measured
23 | Cn1ccc2cc(-c3cccc4nc(N5Cc6ccccc6C5)oc34)ccc21 | > 1000 | –
24 | Cn1ccc2cc(-c3ccc4oc(N5CCn6cccc6C5)nc4c3)ccc21 | 42 | –
25 | Cn1ccc2cc(-c3ccc4oc(Nc5ccccc5)nc4c3)ccc21 | 48 | –
26 | Cn1ccc2cc(-c3ccc4oc(NC5CCCCC5)nc4c3)ccc21 | 911 | –
27 | Cn1ccc2cc(-c3ccc4oc(N5CCc6ccccc6C5)nc4c3)ccc21 | 55 | –
28 | c1cc2c(ccn2C2COC2)cc1-c1ccc2oc(NC3CCCCC3)nc2c1 | 579 | –
29 | Cn1ccc2cc(-c3ccc4nc(N5Cc6ccccc6C5)oc4c3)ccc21 | > 1000 | –
30 | Cn1ncc2cc(-c3ccc4oc(N5Cc6ccccc6C5)nc4c3)ccc21 | 1.2 | –
31 | Cn1ccc2cc(-c3ccc4oc(Cc5ccccc5)nc4c3)ccc21 | 488 | –
32 | COCc1ccc(-c2ccc3oc(N4Cc5ccccc5C4)nc3c2)cc1OC | 13 | –
33 | Cn1ncc2c(-c3ccc4oc(NC5CCCCC5)nc4c3)cccc21 | 52 | –
34 | Cn1ccc2cc(-c3ccc4oc(N5CCOCC5)nc4c3)ccc21 | 784 | –
35 | CCn1ccc2cc(-c3ccc4oc(Nc5ccccc5)nc4c3)ccc21 | 18 | IC50 [5]: 92 nM; IC50 [2]: 586 nM; IC50 [3]: 98 nM; IC50 [4]: 424 nM
36 | Cn1ccc2cc(-c3ccc4oc(N5Cc6ccccc6C5)nc4c3)ccc21 | 12 | IC50 [5]: 95 nM; IC50 [2]: 413 nM; IC50 [3]: 42 nM; IC50 [4]: 423 nM
37 | Cn1ccc2cc(-c3ccc4oc(Nc5cccnc5)nc4c3)ccc21 | 226 | –
38 | COc1ccc(Nc2nc3cc(-c4ccc5c(ccn5C)c4)ccc3o2)cc1 | 280 | –
39 | c1ccc(-c2ccc3oc(NC4CCCCC4)nc3c2)cc1 | > 1000 | –
40 | Cn1ccc2cc(-c3ccc4oc(N5Cc6cccnc6C5)nc4c3)ccc21 | 211 | –
41 | NC(=O)c1cccc(-c2cccc(OC(=O)NC3CCCCC3)c2)c1 [URB-597] | – | IC50 [3]: 0.8 nM; IC50 [4]: 26 nM
42 | COc1ccc(-c2ccc3oc(NC4CCCCC4)nc3c2)cc1C | 228 | –
43 | c1ccc2c(c1)CN(c1nc3cc(-c4ccc5nccn5c4)ccc3o1)C2 | 14 | –
44 | COCc1ccc(-c2ccc3oc(N4Cc5ccccc5C4)nc3c2)cc1 | 10 | –
